Results as given in patent US9072901B2, “Cardiac neuromodulation and methods of using same” (The Board of Regents of the University of Oklahoma, priority 2001, dated 2015).

How the values were obtained:
[1] = test system: C1-C2 spinal neurons; assay: Vagal inhibition of T3 neuron after ibotenic acid on dorsal C1-C2 spinal cord; type: in vivo; settings: approximately 20 min after ibotenic acid was placed on the spinal cord
Source text: FIGS. […] Electrical stimulation of the left cervical vagus (A: LCVS; {30 V, 0.1 ms} ipsilateral to the cell) right cervical vagus (B; RCVS; contralateral) at different frequencies. Vagal stimulation reduced the discharge rate of the evoked response to noxious stimulation of the cardiac afferents intrapericardial injections of bradykinin (C). IA; ibotenic acid. The short horizontal bars represent the period of vagal stimulation, the long horizontal bar represents the bradykinin injection and the numbers indicate the frequencies tested.
Chemical disruption of the C1-C2 spinal neurons alters the effects of stimulation of the cardiac afferent input on the regulation of information processing in the cervical and thoracic spinal cord. In order to produce chemical disruption of cells, ibotenic acid was chosen because it is an excitotoxin that has been used effectively in previous studies. Ibotenic acid is a structurally rigid glutamate analog that destroys neuronal perikarya, but spares axons and non-neuronal cells. After ibotenic acid is injected into a nucleus or applied to the surface of the spinal cord, the cells in the region are initially excited and then enter a phase of depolarization block. […] The advantage of this methodology is that the neuronal relays in the C1-C2 segments can be disrupted without interrupting the axons that pass through this region. […]

[2] = test system: C1 dorsal horn cells; assay: Annexin fluorescence histochemistry after ibotenic acid pledget on C1-C2 spinal segments; type: in vivo, rats; settings: pledget on C1-C2 for 2 hrs, after 14-16 hrs
Source text: After 14-16 hrs, rats were perfused with fixative and the medulla, C1-2, C3-5 segments were processed for annexin fluorescence histochemistry. Photomicrographs are from the C1 dorsal horn and the gray matter is outlined. […] White arrows point to unlabeled (black) cells in the dorsal horn. […] Annexin binding indicates cells with energy impairment and/or undergoing apotosis. Annexin belongs to a family of proteins that bind acidic phospholipids, particularly phosphotidylserine (PS). PS is assymetically distributed in the cell membrane by the enzyme, aminophospholipid translocase. Following energy impairment, PS distributes to the outer cell leaflet and annexin binding illustrates cells with PS on the outside of the cell.
Chemical disruption of the C1-C2 spinal neurons alters the effects of stimulation of the cardiac afferent input on the regulation of information processing in the cervical and thoracic spinal cord. In order to produce chemical disruption of cells, ibotenic acid was chosen because it is an excitotoxin that has been used effectively in previous studies. Ibotenic acid is a structurally rigid glutamate analog that destroys neuronal perikarya, but spares axons and non-neuronal cells. After ibotenic acid is injected into a nucleus or applied to the surface of the spinal cord, the cells in the region are initially excited and then enter a phase of depolarization block. […]

N[C@H](C(=O)O)c1cc(=O)[nH]o1 [ibotenic acid]
inhibitory effects to vagal stimulation [1]: eliminated
annexin staining of cells [2]: many annexin positive
